Source: patent US8450093B1, “Adaptive engineering of clostridium for increased butanol production” (The Ohio State University, priority 2010, dated 2013)

What was measured:
ATCC 824 = settings: 12 g/L butanol
Description: (§1) Butanol tolerances of different strains are investigated and compared according to the maximal specific growth rates achieved under the challenge of different concentrations of butanol. Seed cultures are prepared the same way as those used for fermentor fermentation. Then, seeds of different strains are inoculated into 10 ml of CGM medium in serum tubes supplemented with different concentrations of butanol. The tubes are incubated at 37° C. and optical densities (OD600) are measured every 2 h. Growth curves may be drawn according to the OD600 data. Maximal specific growth rates (h^−1) of different strains under different butanol concentrations may be calculated based on the growth curves.

JB200 = settings: CGM medium, 37° C., OD600
Description: as §1

[1] = system: C. acetobutylicum ATCC 55025 (parental strain)
Description: as §1

BA 101 = settings: 12 g/L butanol
Description: as §1

NCIMB 8052 = settings: 12 g/L butanol
Description: as §1

## butanol
ATCC 824
  growth in the presence of butanol: none of them could grow
JB200
  butanol concentration at which cells still grew: 16 g/L
[1]; CGM medium, 37° C., OD600
  butanol concentration above which cell growth stopped: higher than 12 g/L
[1]; general statement, parental strain
  butanol concentration at which growth usually stops (cells lysed): 10-12 g/L
BA 101
  growth in the presence of butanol: none of them could grow
NCIMB 8052
  growth in the presence of butanol: none of them could grow
